The test system of this test is COLO205 colon cancer cells. Nature of the test: Apoptotic DNA laddering, DNA gel separation analysis. It is filed as cell-based. Conditions: 18 hrs, ceramide 25 μM. The protocol: FIG. 8 represents a micrograph of DNA gel separation analysis of COLO205 cells incubated with C6 ceramide-loaded mitochondriotropic liposomes according to the invention for 18 hrs, followed by extraction of their DNA. The concentration of ceramide in all samples was 25 μM. Lane A—DNA marker; lane B—untreated control; lane C—ceramide-loaded plain liposomes; lane D—ceramide loaded STPP liposomes according to the invention; lane E—free ceramide. Black arrows indicate the apoptotic DNA ladder. Total amount of DNA was identical in all lanes; and
FIG. 8 represents a micrograph of DNA gel separation analysis of cells of the colon cancer cell line COLO205 incubated with C6 ceramide-loaded mitochondriotropic liposomes according to the invention for 18 hrs, followed by extraction of their DNA. The concentration of ceramide in all samples was 25 μM. Lane A—DNA marker; lane B—untreated control; lane C—ceramide-loaded plain liposomes; lane D—ceramide loaded STPP liposomes according to the invention; lane E—free ceramide. Black arrows indicate the apoptotic DNA ladder. The total amount of DNA was identical in all lanes.

Take `CCCCCCCCCCCCC/C=C/[C@@H](O)[C@H](CO)NC(=O)CCCCC` [free ceramide, C6 ceramide]: the “DNA laddering typical of apoptosis” value is “nor cells treated with free ceramide (Lane E, FIG. 8) showed the DNA laddering typical of apoptosis”.

(Values after US20080095834A1, “Mitochondriotropic Phospholipid Vesicles” (priority 2005, published 2008).)
